Laboratory results taken from publication PMC12607858, “GNAT family Pat2 is required for long-term survival on glycerol and catalyzes lysine acetylation of glycerol kinase in hypersaline-adapted archaea” (mBio, 2025).

Tests used:
HvPat2 (HvPat2-SII) [1] = target: T1, HvPat2 (HvPat2-SII) (Haloferax volcanii, UniProt D4GSS9); experiment: anti-acetyllysine immunoblot of in vitro acetylation of His-HvGlpK; type: biochemical; details: acetyl donor 0.2 mM; 6 uM enzyme; co-substrate HvGlpK 2 uM; 50 mM HEPES pH 7.5, 2 M NaCl, 1 mM DTT, 37 C, 3 h
T1 construct: gene pat2; full-length single GNAT domain, C-terminal StrepII tag kept; expressed in and purified from H. volcanii H26 delta-pat2; 196 residues with tag, 21,636 Da, monomer

HvPat2 (HvPat2-SII) [2] = target: T2, HvPat2 (HvPat2-SII) (Haloferax volcanii, UniProt D4GSS9, N147A); experiment: as above; type: biochemical; details: acetyl donor 0.2 mM; 6 uM enzyme; co-substrate HvGlpK 2 uM; 50 mM HEPES pH 7.5, 2 M NaCl, 1 mM DTT, 37 C, 3 h
T2 construct: gene pat2; full-length single GNAT domain, C-terminal StrepII tag kept; expressed in and purified from H. volcanii H26 delta-pat2; 196 residues with tag, 21,636 Da, monomer
T2 sequence (D4GSS9 entry or part of it N147A): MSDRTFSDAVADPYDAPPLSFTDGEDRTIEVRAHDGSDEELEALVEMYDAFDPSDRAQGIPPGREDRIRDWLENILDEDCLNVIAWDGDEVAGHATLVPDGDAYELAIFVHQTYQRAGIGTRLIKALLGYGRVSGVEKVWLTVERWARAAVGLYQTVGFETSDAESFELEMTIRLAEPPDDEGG

T1 sequence (D4GSS9 entry or part of it): as the sequence (D4GSS9 entry or part of it N147A) above, with A147N counted along it

With `CC(=O)SCCNC(=O)CCNC(=O)[C@H](O)C(C)(C)COP(=O)(O)OP(=O)(O)OC[C@H]1O[C@@H](n2cnc3c(N)ncnc32)[C@H](O)[C@@H]1OP(=O)(O)O` [acetyl-CoA] the “anti-acetyllysine immunoblot of in vitro acetylation of His-HvGlpK” value (HvPat2 (HvPat2-SII) [1]) was “when His-HvGlpKEc was incubated with both HvPat2 and acetyl-CoA, a strong signal for lysine acetylation” and the “anti-acetyllysine immunoblot of in vitro acetylation of His-HvGlpK” value (HvPat2 (HvPat2-SII) [2]) was “The V110A variant showed minimal activity, while N147A exhibited reduced activity”.
